Measured values: patent US10328079B2, “[6R]-MTHF multiple bolus administration in 5-fluorouracil based chemotherapy” (Isofol Medical AB, priority 2017, dated 2019)
Where “and” joins values, the source holds several entries; their conditions need not be identical. Equal entries are not always repeated. Entries after “also recorded” stand apart in the source; their conditions may differ.

Test system: stage IV colorectal cancer
Assay: ISO-CC-005 Phase I/II trial: tumor response according to RECIST 1.1
Format: in vivo, human
Conditions: for ORR (objective response rate): after 8 weeks' treatment, with 5-FU
Text: As used herein, the term ORR shall refer to the Objective Response Rate, i.e. the proportion of patients with reduction in tumor burden of a predefined amount.
Complete Response (CR): • Disappearance of all target lesions. Any pathological lymph nodes (whether target or non-target) must have reduction in short axis to <10 mm.
(Note: the appearance of one or more new lesions is also considered progression).
Stable Disease (SD): • Neither sufficient shrinkage to qualify for PR nor sufficient increase to qualify for PD, taking as reference the smallest sum diameters while on study. (Eisenhauer E A, Therasse P, Bogaerts J, Schwartz L H, Sargent D, Ford R, et al. New response evaluation criteria in solid tumors: revised RECIST guideline (version 1.1). Eur J Cancer. 2009 January; 45(2):228-47)
The safety and efficacy of [6R]-5,10-methylenetetrahydrofolate ([6R]-MTHF) is analyzed in an open-label, multiple-site, Phase I/II Dose Cohort Trial (ISO-CC-005) in combination with a fixed dose of 5-Fluorouracil (5-FU) alone or together with a fixed dose of Bevacizumab, Oxaliplatin or Irinotecan in patients with stage IV colorectal cancer. A maximum of 63 Stage IV CRC patients eligible for 1st, 2nd or 3rd line treatment are planned to be enrolled in this study disposed as follows: three to six patients in each dose cohort, and three additional patients in one dose cohort in each treatment arm according to the following study design (Table 1).
[6R]-5,10-Methylenetetrahydrofolic acid ([6R]-MTHF) is formulated as a lyophylised powder containing 100 mg per vial (calculated as free acid). Dosing: Rapid i.v. bolus injections at a fixed dose of 30, 60, 120 or 240 mg/m^2, will be administered approximately 30 minutes after administration of 5-FU on Day 1 and Day 2 in each treatment cycle in all dose cohorts of the study (i.e. regardless of treatment arm). The regimen will be repeated every second week for up to eight (8) cycles, i.e. up to sixteen (16) weeks.
5-FU (5-fluorouracil) is formulated as injection solution. Dosing: 5-FU will be administered as i.v. bolus injections on Day 1 and Day 2 in each treatment cycle. In Arm #2 and Arm #3 of the study, 5-FU will be administered approximately 60 minutes after start of Oxaliplatin or Irinotecan administration, respectively (see description below). The treatment will be repeated every second week for up to eight (8) cycles, i.e. up to sixteen (16) weeks.
ISO-CC-005 is an open clinical phase I/II tolerability and dose definition study designed to evaluate safety and define the [6R]-MTHF dose for continued development. It evaluates four doses of [6R]-MTHF in combination with 5-FU with or without the different combinations of irinotecan or oxaliplatin and bevacizumab in patients with metastatic Colorectal Cancer using 4 different protocols: • MOD+5-FU: [6R]-MTHF in combination with 5-FU only, similar to Nordic FLV protocol • MOD+FLIRI: [6R]-MTHF in combination with 5-FU and Irinotecan, similar to Nordic FLIRI protocol • MOD+FLOX: [6R]-MTHF in combination with 5-FU and Oxaliplatin, similar to Nordic FLOX protocol • MOFOX: [6R]-MTHF in combination with 5-FU and Oxaliplatin, similar to FOLFOX-6 protocol
In one of the treatment protocols (MOFOX) the total dose of [6R]-MTHF was divided into two i.v. bolus injections dispensed approximately 30 and 60 minutes after the initial administration of 5-FU bolus injection (at 0 minute), respectively.
3 patients in total had at this point been treated according to the MOFOX protocol.
By December 2017 the first-line patients were assessed again after 16 weeks of treatment (16 weeks is considered the standard schedule for cancer treatment according to clinical practice guidelines for ESMO (European Society for Medical Oncology)). Four (4) 1st line patients could not be followed for the additional 8 weeks' treatment due to study protocol formalities, and no further 1st line patients had been analysed at this point.

[1] = of 8 first-line patients, 16 weeks
[2] = of 13 patients analyzed by August 2017, 8 weeks
[3] = of first 12 first-line patients, 8 treatment weeks

`Nc1nc2c(c(=O)[nH]1)N1CN(c3ccc(C(=O)N[C@@H](CCC(=O)O)C(=O)O)cc3)C[C@H]1CN2` [[6R]-MTHF, [6R]-5,10-methylenetetrahydrofolate] was tested, and the ORR (8 remaining first-line patients, 16 weeks of treatment) was 63%, the “ORR (objective response rate)” value (12 first-line patients group) was 50% and the “first-line patients with progressive disease (PD)” value (12 first-line patients, 8 weeks) was “none”. For the same compound, the “ORR (objective response rate)” value (13 patients (12 first-line + 1 second-line), RECIST 1.1) was 54%, the “progression of solid tumors between 8 and 16 weeks after initializing treatment” value ([6R]-MTHF and 5-FU, treatment period of at least 8 weeks) was “no patient displayed tumor progression; also recorded: No statistically significant progression” and the “clinical benefit, defined as stable disease or partial response, treated patients” value ([6R]-MTHF combined with 5-FU, colorectal cancer) was greater than 90%. For the same compound, the “ORRs achieved with initial 5-FU followed by multiple IV boluses of [6R]-MTHF” value (colorectal cancer patients, boluses interspaced by about 10-60 minutes) was 60-80% and 60-85%, the “patients with partial response (PR)” value (group treated with at least 60 mg/m2 [6R]-MTHF, 5 out of 7 patients, 8 weeks) was 71% and the “patients showing partial response” value [1] was 5 patients. The “patients showing stable disease” value [1] was 3 patients, the “patients showing partial response” value [2] was 7 patients and the “patients showing stable disease” value [2] was 6 patients. For the same compound, the “patients showing partial response (PR)” value [3] was 6 patients and the “patients showing stable disease” value [3] was 6 patients.
